This note sets out measurements from patent US7163941B2, “Pyrido[2,3-d]pyrimidin-7-carboxylic acid derivatives, their manufacture and use as pharmaceutical agents” (Hoffmann-La Roche Inc., priority 2003, dated 2007).

The target in assay [1] is T1, Lck (p56^lck, active) (Homo sapiens, UniProt P06239).
T1 construct: purchased Upstate (UBI)
The assay can be described thus: SRC-Inhibitor-Assay (time-resolved fluorescence), Lck enzyme. Format: biochemical. The conditions noted are these: ATP 5 μM, peptide 10 μM, enzyme 2.5 U/ml, pre-incubation 15 min at 15° C. As for the experimental part: (§1) The activity of the compounds according to this invention as inhibitors for the src-family tyrosine kinases was shown by using the following assay.
(§2) SRC-Inhibitor-Assay Parameters:
(§3) • Reaction mixture: • ATP 5 μM • Peptide (R+Ja133-Ro): 10 μM • Ja133-Ro 196 nM • Ro 9.8 μM • PT66 230 ng/ml • Assay buffer: 4 mM MgCl2 • 2 mM TCEP • 50 mM HEPES • 0,1% Tween 20 • pH 7.3 • Enzyme: 2.5 U/ml • Inhibitor: max. 25 μM • min. 0.42 nM Material: • Eu-labelled phosphotyrosine antibody: -for Lck Cisbio Mab PT66-K, • for Src EG&G Wallac PT66 Eu-W1024 (all commercially available). • Peptides: Ro: NH2-A-E-E-E-I-Y-G-E-F-E-A-K-K-K-K-CONH2 (SEQ ID NO: 1), and • Ja133-Ro: Ja133-G-Aminocaprylic acid-A-E-E-E-I-Y-G-E-F-E-A-K-K-K-K-CONH2 (SEQ ID NO: 2), wherein Ja133 is LightCycler-Red 640-N-hydroxy succinimide ester; • whereby both peptides were synthesized by an optimized solid phase peptide synthesis protocol (Merrifield, Fed. Proc. Fed. Amer. Soc. Exp. Biol. 21 (1962) 412) on a Zinsser SMP350 peptide synthesizer. Shortly, the peptide was assembled on 160 mg (22.8 μmol scale) of a Rink-Linker modified polystyrene solid phase by repeatedly conjugating an twenty fold excess of aminoacids each protected by temporary piperidine labile Fmoc- and permanent acid labile tert-Bu-, BOC- and Otert-Bu-groups depending on the side chain function. The substrate sequence AEEEIYGEFEAKKKK (SEQ ID NO: 1) was N-terminal additionally mounted with the spacer amino acids Aminocaprylic acid and Glycin. After cleavage of the N-terminal temporary protecting group the still attached and protected peptide was labeled with a 1.5 fold amount of LightCycler-Red 640-N-hydroxy succinimide ester (purchased by Roche Diagnostics GmbH) and triethylamine. After 3 hrs. the resin was washed with Dimethylformamide and Isopropanol until the eluates of the blue resin got colo-rless. […] The substrate was finally isolated by a preparative reverse phase HPLC purification. The purification yielded 12.2 mg RP-HPLC single peak pure blue material (lyophilisate). The identity was proven by MALDI mass spectroscopy [2720.0]. • Enzymes: Upstate Lck (p56^lck, active), Upstate Src (p60^c-src, partially purified) were purchased from UBI. • Time-resolved Fluorescence Assay: Reader: Perkin Elmer, Wallac Viktor 1420-040 multilabel counter; Liquid handling system: Beckman Coulter, Biomek 2000. ATP, Tween 20, HEPES were purchased from Roche Molecular Biochemicals, MgCl2 and MnCl2 were purchased from Merck Eurolab, TCEP was purchased from Pierce, 384 Well low volume fluorescence plates was purchased from Falcon. Assay Description:
(§4) At first the enzyme is pre-incubated for 15 min. at 15° C. in aqueous solution with corresponding amounts of inhibitors according to this invention. Then the phosphorylation reaction is started by adding a reaction mixture, containing ATP, Peptide and PT66, and subsequent shaking. The proceeding of this reaction is immediately monitored using time resolved fluorescence spectroscopy in a suitable well plate reader.
(§5) The IC50-values can be obtained from the reaction rates by using a non-linear curve fit (Excelfit).

Assay [2] concerns the target T2, Src (p60^c-src, partially purified) (Homo sapiens, UniProt P12931).
T2 construct: purchased Upstate (UBI)
As to the kind of experiment: SRC-Inhibitor-Assay (time-resolved fluorescence), Src enzyme. Format: biochemical. As to conditions: ATP 5 μM, peptide 10 μM, enzyme 2.5 U/ml, pre-incubation 15 min at 15° C. As for the experimental part: as §1, §2, §3, §4, §5

T2 sequence (P12931 whole entry, species assumed): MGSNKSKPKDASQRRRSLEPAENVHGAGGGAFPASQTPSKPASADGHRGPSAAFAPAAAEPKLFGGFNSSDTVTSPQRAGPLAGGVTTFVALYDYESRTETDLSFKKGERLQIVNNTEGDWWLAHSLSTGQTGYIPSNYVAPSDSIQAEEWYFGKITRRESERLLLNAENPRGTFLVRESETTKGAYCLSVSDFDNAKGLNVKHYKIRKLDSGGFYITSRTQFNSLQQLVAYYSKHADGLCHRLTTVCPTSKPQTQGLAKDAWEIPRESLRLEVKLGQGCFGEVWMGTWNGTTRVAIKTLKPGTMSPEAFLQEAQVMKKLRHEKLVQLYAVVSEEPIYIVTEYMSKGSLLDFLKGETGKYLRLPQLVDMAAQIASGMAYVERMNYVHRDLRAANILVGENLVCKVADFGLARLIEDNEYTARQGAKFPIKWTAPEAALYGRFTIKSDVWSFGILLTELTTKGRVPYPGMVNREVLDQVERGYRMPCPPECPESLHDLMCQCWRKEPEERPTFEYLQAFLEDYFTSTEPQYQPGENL
T1 sequence (P06239 whole entry, species assumed): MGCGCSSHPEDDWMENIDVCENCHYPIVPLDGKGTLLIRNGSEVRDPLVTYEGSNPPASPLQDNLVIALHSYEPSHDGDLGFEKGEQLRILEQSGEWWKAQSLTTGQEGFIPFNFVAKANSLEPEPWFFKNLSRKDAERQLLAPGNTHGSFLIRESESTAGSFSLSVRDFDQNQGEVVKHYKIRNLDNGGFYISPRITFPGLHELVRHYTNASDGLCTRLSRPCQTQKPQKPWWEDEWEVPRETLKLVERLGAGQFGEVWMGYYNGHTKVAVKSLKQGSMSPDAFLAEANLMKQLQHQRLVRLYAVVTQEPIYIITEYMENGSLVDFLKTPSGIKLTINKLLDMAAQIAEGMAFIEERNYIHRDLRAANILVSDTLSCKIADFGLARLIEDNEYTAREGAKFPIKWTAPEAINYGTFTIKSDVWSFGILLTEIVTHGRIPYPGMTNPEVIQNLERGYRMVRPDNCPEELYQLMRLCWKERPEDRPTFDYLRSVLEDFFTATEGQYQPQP

Turning to `CN1CCC(NC(=O)c2nc3nc(Nc4ccc(F)cc4)ncc3cc2-c2ccccc2Br)CC1` [Example 3-21, 6-(2-Bromo-phenyl)-2-(4-fluoro-phenylamino)-pyrido[2,3-d]pyrimidine-7-carboxylic acid (1-methyl-piperidin-4-yl)-amide], the half-inhibitory concentration (IC50) stood at 638 nM in assay [1] and 96.2 nM in assay [2].
The matching figures for `O=C(NCCN1CCOCC1)c1nc2nc(Nc3ccc(F)cc3)ncc2cc1-c1ccccc1Br` [Example 3-22, 6-(2-Bromo-phenyl)-2-(4-fluoro-phenylamino)-pyrido[2,3-d]pyrimidine-7-carboxylic acid (2-morpholin-4-yl-ethyl)-amide]: 662 nM and 158 nM.
For `CC(CN(C)C)NC(=O)c1nc2nc(Nc3ccc(F)cc3)ncc2cc1-c1ccccc1Br` (stereo not drawn) [Example 3-23, 6-(2-Bromo-phenyl)-2-(4-fluoro-phenylamino)-pyrido[2,3-d]pyrimidine-7-carboxylic acid (2-dimethylamino-1-methyl-ethyl)-amide], in that order: 573 nM and 195 nM.
With `CNC(=O)CNC(=O)c1nc2nc(Nc3ccc(F)cc3)ncc2cc1-c1ccccc1Br` [Example 3-24, 6-(2-Bromo-phenyl)-2-(4-fluoro-phenylamino)-pyrido[2,3-d]pyrimidine-7-carboxylic acid methylcarbamoylmethyl-amide], the IC50 in assay [1] was 206 nM; in assay [2] it was 130 nM.
For `O=C(NCCN1CCNC1=O)c1nc2nc(Nc3ccc(F)cc3)ncc2cc1-c1ccccc1Br` [Example 3-25, 6-(2-Bromo-phenyl)-2-(4-fluoro-phenylamino)-pyrido[2,3-d]pyrimidine-7-carboxylic acid[2-(2-oxo-imidazolidin-1-yl)-ethyl]-amide], in that order: 370 nM and 157 nM.
For the compound `O=C(NCCCN1CCCC1=O)c1nc2nc(Nc3ccc(F)cc3)ncc2cc1-c1ccccc1Br` [Example 3-26, 6-(2-Bromo-phenyl)-2-(4-fluoro-phenylamino)-pyrido[2,3-d]pyrimidine-7-carboxylic acid [3-(2-oxo-pyrrolidin-1-yl)-propyl]-amide], the IC50 in assay [1] amounted to 275 nM; in assay [2], 197 nM.
In the case of `CC(CNC(=O)c1nc2nc(Nc3ccc(F)cc3)ncc2cc1-c1ccccc1Br)N(C)C` (stereo not drawn) [Example 3-27, 6-(2-Bromo-phenyl)-2-(4-fluoro-phenylamino)-pyrido[2,3-d]pyrimidine-7-carboxylic acid (2-dimethylamino-propyl)-amide], the half-maximal inhibitory concentration (IC50) in assay [1] turned out to be 129 nM; in assay [2], 23.9 nM.
The matching figures for `O=C(N[C@H]1CCNC1)c1nc2nc(Nc3ccc(F)cc3)ncc2cc1-c1ccccc1Br` [Example 3-28, (S)-6-(2-Bromo-phenyl)-2-(4-fluoro-phenylamino)-pyrido[2,3-d]pyrimidine-7-carboxylic acid pyrrolidin-3-ylamide]: 62.7 nM and 19.3 nM.
Turning to `O=C(N[C@@H]1CCNC1)c1nc2nc(Nc3ccc(F)cc3)ncc2cc1-c1ccccc1Br` [Example 3-29, (R)-6-(2-Bromo-phenyl)-2-(4-fluoro-phenylamino)-pyrido[2,3-d]pyrimidine-7-carboxylic acid pyrrolidin-3-ylamide], the IC50 in assay [1] amounted to 429 nM; in assay [2], 103 nM.
`CN(C)C(=O)CNC(=O)c1nc2nc(Nc3ccc(F)cc3)ncc2cc1-c1ccccc1Br` [Example 3-30, 6-(2-Bromo-phenyl)-2-(4-fluoro-phenylamino)-pyrido[2,3-d]pyrimidine-7-carboxylic acid dimethylcarbamoylmethyl-amide]: the IC50 in assay [1] came to 151 nM; in assay [2], 247 nM.
With `CNCCCNC(=O)c1nc2nc(Nc3ccc(F)cc3)ncc2cc1-c1ccccc1Br` [Example 3-31, 6-(2-Bromo-phenyl)-2-(4-fluoro-phenylamino)-pyrido[2,3-d]pyrimidine-7-carboxylic acid (3-methylamino-propyl)-amide], the IC50 in assay [1] is 100 nM; in assay [2], 42.8 nM.
For `O=C(NCCCN1CCOCC1)c1nc2nc(Nc3ccc(F)cc3)ncc2cc1-c1ccccc1Br` [Example 3-32, 6-(2-Bromo-phenyl)-2-(4-fluoro-phenylamino)-pyrido[2,3-d]pyrimidine-7-carboxylic acid (3-morpholin-4-yl-propyl)-amide], in that order: 195 nM and 117 nM.
For `CN1CCCC1CCNC(=O)c1nc2nc(Nc3ccc(F)cc3)ncc2cc1-c1ccccc1Br` (stereo not drawn) [Example 3-33, 6-(2-Bromo-phenyl)-2-(4-fluoro-phenylamino)-pyrido[2,3-d]pyrimidine-7-carboxylic acid [2-(1-methyl-pyrrolidin-2-yl)-ethyl]-amide], in that order: 96.9 nM and 44.7 nM.
The matching figures for `O=C(N[C@@H]1CCCNC1)c1nc2nc(Nc3ccc(F)cc3)ncc2cc1-c1ccccc1Br` [Example 3-34, (R)-6-(2-Bromo-phenyl)-2-(4-fluoro-phenylamino)-pyrido[2,3-d]pyrimidine-7-carboxylic acid piperidin-3-ylamide]: 127 nM and 97.9 nM.
For the compound `O=C(NC1CN2CCC1CC2)c1nc2nc(Nc3ccc(F)cc3)ncc2cc1-c1ccccc1Br` (stereo not drawn) [Example 3-35, 6-(2-Bromo-phenyl)-2-(4-fluoro-phenylamino)-pyrido[2,3-d]pyrimidine-7-carboxylic acid (1-aza-bicyclo[2.2.2]oct-3-yl)-amide], the IC50 worked out at 251 nM in assay [1] and 73.1 nM in assay [2].
The matching figures for `O=C(NCCNc1ccccn1)c1nc2nc(Nc3ccc(F)cc3)ncc2cc1-c1ccccc1Br` [Example 3-36, 6-(2-Bromo-phenyl)-2-(4-fluoro-phenylamino)-pyrido[2,3-d]pyrimidine-7-carboxylic acid [2-(pyridin-2-ylamino)-ethyl]-amide]: 256 nM and 165 nM.
For `NS(=O)(=O)CCNC(=O)c1nc2nc(Nc3ccc(F)cc3)ncc2cc1-c1ccccc1Br` [Example 3-37, 6-(2-Bromo-phenyl)-2-(4-fluoro-phenylamino)-pyrido[2,3-d]pyrimidine-7-carboxylic acid (2-sulfamoyl-ethyl)-amide], in that order: 189 nM and 21 nM.
For `O=C(NCCCO)c1nc2nc(Nc3ccc(F)cc3)ncc2cc1-c1ccccc1Br` [Example 3-38, 6-(2-Bromo-phenyl)-2-(4-fluoro-phenylamino)-pyrido[2,3-d]pyrimidine-7-carboxylic acid (3-hydroxy-propyl)-amide], in that order: 456 nM and 91.8 nM.
As to `O=C(NCCc1cnc[nH]1)c1nc2nc(Nc3ccc(F)cc3)ncc2cc1-c1ccccc1Br` [Example 3-39, 6-(2-Bromo-phenyl)-2-(4-fluoro-phenylamino)-pyrido[2,3-d]pyrimidine-7-carboxylic acid [2-(3H-imidazol-4-yl)-ethyl]-amide], the IC50 amounted to 114 nM in assay [1] and 24.3 nM in assay [2].
For `C[S+]([O-])CCNC(=O)c1nc2nc(Nc3ccc(F)cc3)ncc2cc1-c1ccccc1Br` (stereo not drawn) [Example 3-40, 6-(2-Bromo-phenyl)-2-(4-fluoro-phenylamino)-pyrido[2,3-d]pyrimidine-7-carboxylic acid (2-methanesulfinyl-ethyl)-amide], in that order: 584 nM and 149 nM.
Take `Cc1cc(CNC(=O)c2nc3nc(Nc4ccc(F)cc4)ncc3cc2-c2ccccc2Br)nn1C` [Example 3-41, 6-(2-Bromo-phenyl)-2-(4-fluoro-phenylamino)-pyrido[2,3-d]pyrimidine-7-carboxylic acid (1,5-dimethyl-1H-pyrazol-3-ylmethyl)-amide]: the IC50 in assay [1] was 126 nM; in assay [2] it was 26 nM.
